Laboratory results from ChEMBL document CHEMBL1201862, “PubChem BioAssay data set” (2004).
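Each compound was tested at five concentrations against cells in 96-well plates for 48 hours. Here, GI50 denotes the concentration required for 50% inhibition of growth.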 Calls of active or inactive are those of the source. No stated cut-off is given here; in the data, active = GI50 up to about 1.1 µM and inactive = higher.

Legend:
Assay in all cases: inhibition of tumour cell growth, NCI panel, 48 h
UACC-62 = test system: UACC-62
EKVX = test system: EKVX
SK-MEL-5 = test system: SK-MEL-5
CAKI-1 = test system: CAKI-1
HCT-15 = test system: HCT-15
OVCAR-8 = test system: OVCAR-8
PC-3 = test system: PC-3
LOX IMVI = test system: LOX IMVI
HOP-62 = test system: HOP-62
SNB-75 = test system: SNB-75
HOP-92 = test system: HOP-92
OVCAR-5 = test system: OVCAR-5
Malme-3M = test system: Malme-3M
SF-539 = test system: SF-539
HCT-116 = test system: HCT-116
SK-MEL-2 = test system: SK-MEL-2
NCI-H460 = test system: NCI-H460
SF-268 = test system: SF-268
OVCAR-3 = test system: OVCAR-3
CCRF-CEM = test system: CCRF-CEM

Row | SMILES | GI50 (UACC-62) | GI50 (EKVX) | GI50 (SK-MEL-5) | GI50 (CAKI-1) | GI50 (HCT-15) [µM] | GI50 (OVCAR-8) | GI50 (PC-3) | GI50 (LOX IMVI) | GI50 (HOP-62) | GI50 (SNB-75) | GI50 (HOP-92) | GI50 (OVCAR-5) | GI50 (Malme-3M) | GI50 (SF-539) | GI50 (HCT-116) | GI50 (SK-MEL-2) | GI50 (NCI-H460) | GI50 (SF-268) | GI50 (OVCAR-3) | GI50 (CCRF-CEM)
1 | Cn1c(=O)cc(NCc2ccc(Cl)cc2)[nH]c1=O | 30.8 µM (inactive) | > 100 µM (inactive) | > 100 µM (inactive) | > 100 µM (inactive) | > 100 | 44.4 µM (inactive) | > 100 µM (inactive) | > 100 µM (inactive) | 22.4 µM (inactive) | 24 µM (inactive) | 19.3 µM (inactive) | > 100 µM (inactive) | 73.3 µM (inactive) | 32.4 µM (inactive) | 52.6 µM (inactive) | > 100 µM (inactive) | > 100 µM (inactive) | 18.8 µM (inactive) | > 100 µM (inactive) | –
2 | Cc1ccc(S(=O)(=O)NC(=O)NC(Cc2ccc(O)cc2)C(=O)O)cc1 (stereo not given) | – | – | > 100 µM (inactive) | – | > 100 | > 100 µM (inactive) | > 100 µM (inactive) | > 100 µM (inactive) | > 100 µM (inactive) | > 100 µM (inactive) | > 100 µM (inactive) | > 100 µM (inactive) | > 100 µM (inactive) | > 100 µM (inactive) | > 100 µM (inactive) | > 100 µM (inactive) | > 100 µM (inactive) | > 100 µM (inactive) | – | > 100 µM (inactive)
3 | O=S(=O)(O)c1ccc(-c2c3nc(c(-c4ccc(S(=O)(=O)O)cc4)c4ccc([nH]4)c(-c4ccc(S(=O)(=O)O)cc4)c4nc(c(-c5ccc(S(=O)(=O)O)cc5)c5ccc2[nH]5)C=C4)C=C3)cc1 | > 100 µM (inactive) | – | 51.2 µM (inactive) | 28.3 µM (inactive) | 26.4 | > 100 µM (inactive) | > 100 µM (inactive) | 37.8 µM (inactive) | > 100 µM (inactive) | > 100 µM (inactive) | 91.2 µM (inactive) | 53.5 µM (inactive) | 32.5 µM (inactive) | > 100 µM (inactive) | > 100 µM (inactive) | > 100 µM (inactive) | 57.5 µM (inactive) | > 100 µM (inactive) | 36.3 µM (inactive) | 23 µM (inactive)
4 | COc1cccc(/C=C2\N=C(c3ccccc3)OC2=O)c1 | > 100 µM (inactive) | > 100 µM (inactive) | 50.5 µM (inactive) | > 100 µM (inactive) | 34 | 64.4 µM (inactive) | > 100 µM (inactive) | 26.4 µM (inactive) | 61.1 µM (inactive) | 16.1 µM (inactive) | > 100 µM (inactive) | > 100 µM (inactive) | – | 43.1 µM (inactive) | > 100 µM (inactive) | 56.1 µM (inactive) | 50.7 µM (inactive) | > 100 µM (inactive) | 63.1 µM (inactive) | 25 µM (inactive)
5 | COc1ccc(C)cc1NC(=S)N/N=C/c1ccc(SC)cc1 | > 100 µM (inactive) | – | 21.6 µM (inactive) | 47.6 µM (inactive) | 39.6 | 57.1 µM (inactive) | 75 µM (inactive) | 59.6 µM (inactive) | 28.8 µM (inactive) | > 100 µM (inactive) | 93.5 µM (inactive) | 25.1 µM (inactive) | 96.4 µM (inactive) | 27.8 µM (inactive) | 69.3 µM (inactive) | 55.6 µM (inactive) | – | > 100 µM (inactive) | 38.9 µM (inactive) | 54.8 µM (inactive)
6 | CO[C@H](c1ccccc1)[C@H](O)[C@](O)(c1ccccc1)P(=O)(OC)OC | > 100 µM (inactive) | > 100 µM (inactive) | > 100 µM (inactive) | > 100 µM (inactive) | > 100 | > 100 µM (inactive) | > 100 µM (inactive) | > 100 µM (inactive) | – | > 100 µM (inactive) | > 100 µM (inactive) | > 100 µM (inactive) | > 100 µM (inactive) | > 100 µM (inactive) | > 100 µM (inactive) | > 100 µM (inactive) | > 100 µM (inactive) | > 100 µM (inactive) | > 100 µM (inactive) | > 100 µM (inactive)
